Assay results from US20090042790A1, “TRANSMUCOSAL DELIVERY OF PEPTIDE DERIVATIVES” (NASTECH PHARMACEUTICAL COMPANY INC., priority 2005, published 2009).
*1 amine or outer side, *2 acyl side, *3 side chain or, on linkers, in order; H or OH if unused. Where a SMILES comes first, the peptide text is derived from it. Bridges are numbered along the chain shown (N, C = ends). [ ]: non-standard residue; d: D form. The star is where a group is joined. X1 = COc1ccc(C2CCC(N[*:1])(C(=O)[*:2])CC2)cc1; Pentanoyl = CCCCC(=O)*

Key:
[1] = molecular target: T1, melanocortin-1 (MC1 receptor) (Homo sapiens, UniProt Q01726); experiment: cAMP assay in HEK293 cells expressing the MC1 receptor; assay type: cell-based; details: 1×10^−11 to 1×10^−5 M, FIG. 2, read-out: effective concentration to reach a 50% response level (EC50), cAMP production
T1 construct: expressed in transfected cells; host or cells: HEK293
T1 sequence (Q01726 whole entry): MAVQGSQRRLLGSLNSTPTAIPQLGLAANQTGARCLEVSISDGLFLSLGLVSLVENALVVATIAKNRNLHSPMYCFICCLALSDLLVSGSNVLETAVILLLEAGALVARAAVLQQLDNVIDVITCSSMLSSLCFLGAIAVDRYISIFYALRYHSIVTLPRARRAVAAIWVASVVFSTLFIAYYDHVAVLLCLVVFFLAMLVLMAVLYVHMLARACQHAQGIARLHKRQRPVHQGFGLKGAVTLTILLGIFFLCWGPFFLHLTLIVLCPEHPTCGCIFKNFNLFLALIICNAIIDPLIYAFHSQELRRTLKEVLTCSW
Procedure: FIG. 2: The degree of MC4 receptor specificity of the 2 kDa PEGylated MC4-RA and the unmodified MC4-RA was compared. The ability to stimulate cAMP production in cells in vitro was assayed; HEK293 cells expressed the melanocortin-1 (MC1 receptor). A measured increase in cAMP levels indicated a lack of MC4 receptor specificity. The 2 kDa PEGylated and unmodified MC4-RA were incubated in a concentration range of approximately 1×10^−11 to 1×10^−5 M with HEK293 cells that were expressing the MC1 receptor. The maximum quantity of cAMP was normalized to 100% or “% Max Response” and the concentration of 2 kDA PEGylated or unmodified MC4-RA was shown as the log of the Molar concentration. The effective concentration to achieve a 50% response (EC50) is shown.
The degree of MC4 receptor specificity of the 2 kDa PEGylated MC4-RA and the unmodified MC4-RA was compared. […] In this instance, a measured increase in cAMP levels would indicate a lack of MC4 receptor specificity. […] The experiment was performed in triplicate and cAMP levels were measured with the cAMP Tropix assay kit. The maximum quantity of cAMP was normalized to 100% or “% Max Response” and the concentration of 2 kDa PEGylated or unmodified MC4-RA is shown as the log of the Molar concentration.

[2] = molecular target: T2, melanocortin-4 cell receptor (MC4 receptor) (Homo sapiens, UniProt P32245); experiment: cAMP assay in HEK293 cells expressing the MC4 receptor; assay type: cell-based; details: 1×10^−11 to 1×10^−5 M, FIG. 1, read-out: effective concentration to reach a 50% response level (EC50), cAMP production
T2 construct: expressed in transfected cells; host or cells: HEK293
T2 sequence (P32245 whole entry): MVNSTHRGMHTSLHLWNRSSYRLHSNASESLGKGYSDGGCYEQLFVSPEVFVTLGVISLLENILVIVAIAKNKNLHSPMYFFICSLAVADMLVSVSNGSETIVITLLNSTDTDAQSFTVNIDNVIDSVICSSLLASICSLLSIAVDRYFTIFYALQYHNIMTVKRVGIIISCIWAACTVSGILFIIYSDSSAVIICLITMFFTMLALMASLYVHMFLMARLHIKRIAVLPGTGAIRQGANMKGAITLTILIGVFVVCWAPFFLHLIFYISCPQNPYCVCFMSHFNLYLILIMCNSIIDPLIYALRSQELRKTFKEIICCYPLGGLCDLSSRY
Procedure: FIG. 1: The ability of the 2 kDa PEGylated MC4-RA and unmodified MC-4RA to stimulate cAMP production in cells expressing the melanocortin-4 cell receptor (MC4 receptor) was compared. HEK293 cells expressing the MC4 receptor were incubated with either the 2 kDa PEGylated MC4-RA or the unmodified MC4-RA. The concentrations used for either MC4-RA in the cAMP assay ranged from approximately 1×10^−11 to 1×10^−5 M. The maximum quantity of cAMP was normalized to 100% or “% Max Response” and the concentration of 2 kDA PEGylated or unmodified MC4-RA was shown as the log of the Molar concentration. The effective concentration to achieve a 50% response (EC50) is shown.
An ideal property of any therapeutic agent is target specificity as induction, for example, of unwanted cell surface receptors and/or cell signaling pathways may lead to deleterious outcomes in the patient subject. […]
Potency was measured as the ability of the 2 kDa PEGylated MC4-RA or the unmodified MC4-RA to stimulate cAMP production in cells expressing the melanocortin-4 cell receptor (MC4 receptor). […] The experiment was performed in triplicate and cAMP levels were measured with the cAMP Tropix assay kit. The maximum quantity of cAMP was normalized to 100% or “% Max Response” and the concentration of 2 kDa PEGylated or unmodified MC4-RA is shown as the log of the Molar concentration.

[3] = test system: male DOI mice (obesity mouse model system); experiment: Cumulative food intake in male DOI mice; assay type: in vivo; details: high dose group (doses 1.25, 2.5, 5 mg/kg); 16 and 24 hours after dose administration; vs 30% PEG control; FIG. 3
Procedure: The effect of the low molecular weight PEGylated MC4-RA and unmodified MC4-RA on food intake was evaluated under regular light cycle in male DOI mice (obesity mouse model system). Control mice were administered a 30% PEG formulation. For the unmodified MC4-RA in vivo study, individual subjects categorized into three separate study groups, based on dosage levels, were administered 1.25 mg/kg, 2.5 mg/kg or 5 mg/kg of unmodified MC4-RA. For the 2 kDa PEGylated MC4-RA in vivo study, individual subjects categorized into three separate study groups, again based on dosage levels, were administered 5 mg/kg, 10 mg/kg and 20 mg/kg 2 kDa PEGylated MC4-RA. The effective does is higher for the PEGylated MC4-RA due to the tripled molecular weight resulting from the conjugation of a 2 kDa PEG to the MC4-RA molecule.

[4] = test system: EpiAirway™ epithelial cell monolayer; experiment: Transepithelial electrical resistance (TEER) of EpiAirway epithelial cell monolayer; assay type: cell-based; details: positive TEER control
Procedure: The epithelial cells are grown on porous membrane-bottomed cell culture inserts at an air-liquid interface, which results in differentiation of the cells to a highly polarized morphology. The apical surface is ciliated with a microvillous ultrastructure and the epithelium produces mucus (the presence of mucin has been confirmed by immunoblotting). The inserts have a diameter of 0.875 cm, providing a surface area of 0.6 cm^2. The cells are plated onto the inserts at the factory approximately three weeks before shipping. One “kit” consists of 24 units.
These junctions confer a transepithelial resistance of several hundred ohms×cm^2 in excised airway tissues.

Row | EC50 [1] | EC50 [2] | Molecule | cumulative food intake [3] | Average TEER Measurement ([4]; Table 3 formulation #11: 9% Triton X-100 only) | Average TEER Measurement ([4]; Table 5 formulation #17: 9% Triton X-100 only)
1 | ~800 nM | 0.5 nM | CCCCC(=O)N[C@H]1CCC(=O)NCCCC[C@@H](C(N)=O)NC(=O)[C@H](Cc2c[nH]c3ccccc23)NC(=O)[C@H](CCCNC(=N)N)NC(=O)[C@@H](Cc2ccccc2)NC(=O)C2(CCC(c3ccc(OC)cc3)CC2)NC1=O (some centres unmarked) [unmodified MC4-RA] (Pentanoyl-E[X1][dF]RWK-NH2; lactam 1-6) | significant reduction on cumulative food intake | – | –
2 | – | – | octylphenolpoly(ethyleneglycolether) [Triton X-100 ™] | – | 1.5 | 1.2
